Experimental data reported in US20250188427A1, “METHOD OF PRODUCING TARGET VIRUS AND CULTURE COMPOSITION” (FUJIFILM Corporation, priority 2022, published 2025).

Test system: AAV producer cell (HEK293)
Assay: AAV titer by ddPCR, JQ1 treatment with and without wash out (FIG. 4)
Assay type: cell-based, human
Conditions: JQ1 4 μmol/L for 24 hours, medium exchanged to medium without JQ1 (with doxycycline 0.5 μg/mL), recovered after further 48 hours; versus 72 hours JQ1
Description: The HEK cell culture solution, which had been cultured for 72 hours after the gene introduction under the conditions of 37° C. and 8% CO2, was collected, and the cells were disrupted by freezing and thawing at −80° C. Then, the supernatant was collected by centrifugation at 13,800×g, 2 mmol/L (final concentration) MgCl2, and 25 U/mL Benzonase was added thereto, and a reaction was carried out at 37° C. for 2 hours to digest gDNA (genomic DNA) and residual plasmid. The sample after the reaction was incubated at 95° C. for 15 minutes, 70° C. for 3 minutes, 40° C. for 3 minutes, and 20° C. for 3 minutes in this order, to inactivate Benzonase, and the reactant was used as a ddPCR (Droplet Digital PCR) sample. […]. The sequences of the seq18, seq19, and seq20 are set forth in SEQ ID NOs: 18 to 20 in the sequence list.
In ddPCR, droplets were formed from the prepared solution using a droplet forming apparatus, and subsequently incubated at 95° C. for 10 minutes, 94° C. for 30 seconds, and 55° C. in this order for 40 cycles, and then incubated at 98° C. for 10 minutes. Measurement was performed using a droplet reader, and the AAV genomic titer (vg/mL) was calculated.
Furthermore, the produced AAV producer cell was seeded at 5×10^5 cells/mL and incubated for 6 hours, and then doxycycline (final concentration: 0.5 μg/mL) and JQ1 (final concentration: 4 μmol/L) were added. […]

Cc1sc2c(c1C)C(c1ccc(Cl)cc1)=N[C@@H](CC(=O)OC(C)(C)C)c1nnc(C)n1-2 [(+)-JQ1, (S)-(+)-tert-butyl 2-(4-(4-chlorophenyl)-2,3,9-trimethyl-6H-thieno[3,2-f][1,2,4]triazolo[4,3-a][1,4]diazepin-6-yl)acetate]
AAV titer per cell: further improved
